Values belong to the molecule of their own block, whether it stands above or below them.
Experiments:
[1] = molecular target: T1, Glutamate receptor ionotropic AMPA (Homo sapiens, UniProt P42261+P42262+P42263+P48058); test: (§1) Inhibition of Ionotropic glutamate receptor AMPA binding to human hippocampal homogenates at concentration of 5-7 uM; assay type: tissue-based, Hippocampus
[2] = molecular target: Glutamate receptor ionotropic AMPA (Homo sapiens) (UniProt P48058+P42263+P42262+P42261); test: as §1; assay type: tissue-based; details: Hippocampus
[3] = molecular target: T1, Glutamate receptor ionotropic AMPA; test: Inhibition of Ionotropic glutamate receptor AMPA binding to human hippocampal homogenates; assay type: tissue-based, Hippocampus
[4] = Inhibition of [3H]-CGS 19755 binding to NMDA receptor at a concentration of 10 uM
[5] = Inhibition of [3H]-kainic acid binding to kainate receptor at a concentration of 10 uM
[6] = Ability to antagonize AMPA-induced responses in frog oocytes; assay type: functional, cell-based; details: oocyte
[7] = Ability to antagonize kainate-induced responses in frog oocyte; assay type: functional

inhibition [2]: < 5%
Structure (SMILES): Nc1[nH]c(-c2ccncc2)nc2nnnc1-2

inhibition [2]: < 5%
Structure (SMILES): O=c1[nH]c(-c2ccncc2)nc2c1cnn2C1CCCC1

IC50 [3]: 2.1 µM
Structure (SMILES): Oc1nc(-c2ccncc2)nc2c1ncn2C1CCCC1
inhibition at 10 µM [4]: 25%
inhibition at 10 µM [5]: 15%

IC50 [3]: 1.9 µM
Structure (SMILES): Oc1[nH]c(-c2ccncc2)nc2ncnc1-2

Continued, molecule first:

Structure (SMILES): O=c1[nH]c2cc([N+](=O)[O-])c([N+](=O)[O-])cc2[nH]c1=O [DNQX]
IC50 [1]: 0.28 µM

Structure (SMILES): Cc1nc(O)c2c[nH]nc2n1
inhibition [2]: < 5%

Structure (SMILES): Oc1[nH]c(-c2ccncc2)nc2nnnc1-2
pA2 [6]: 6.08
pA2 [7]: 6.2
IC50 [1]: 1.8 µM
inhibition at 10 µM [4]: 17%
inhibition at 10 µM [5]: 37%

Structure (SMILES): Oc1nc(-c2ccncc2)nc2c(C3CCCC3)n[nH]c12
inhibition [2]: < 5%

Structure (SMILES): Nc1[nH]c(-c2ccncc2)nc2ncnc1-2
inhibition [2]: < 5%

— ChEMBL document CHEMBL1128237, “6-(4-pyridinyl)-1H-1,2,3-triazolo[4,5-d]-pyrimidin-4(5H)-one: a structurally novel competitive AMPA receptor antagonist” (J Med Chem, 1995)
